Assay results from patent US11026426B2, “Oxadiazole and phenol derivatives as antibacterial and/or herbicidal agents” (NORTHERN ILLINOIS RESEARCH FOUNDATION, priority 2017, dated 2021).
Where two headings read alike, the source gives them in different places.

Key:
Klebsiella pneumonia [1] = assay: Antibacterial preliminary screening KP; format: cell-based; conditions: score 0-3; also: key: 0 represents no inhibition; 3 is comparable to commercial antibiotic control
[2] = test system: Burkholderia thailandensis; format: cell-based; conditions: preliminary screening, score 0-3
[3] = molecular target: T1, Mycobacterium tuberculosis IspD (MtIspD) (Mycobacterium tuberculosis, UniProt P9WKG9); assay: Thermal shift assay against MtIspD; format: binding
T1 sequence (P9WKG9 1-231): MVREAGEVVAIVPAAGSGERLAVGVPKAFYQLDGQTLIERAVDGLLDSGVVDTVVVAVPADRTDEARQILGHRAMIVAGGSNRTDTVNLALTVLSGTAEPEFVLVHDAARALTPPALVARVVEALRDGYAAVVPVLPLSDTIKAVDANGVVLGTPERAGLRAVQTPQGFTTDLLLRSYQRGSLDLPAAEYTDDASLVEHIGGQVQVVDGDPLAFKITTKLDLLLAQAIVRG

lettuce seeds = assay: Lettuce leaf assay; format: in vivo; set-up: key: 0 (no effect); 5(complete inhibition or bleaching); conditions: ranking 0-5
Description: The lettuce leaf assay is a qualitative assay used to determine the relative effectiveness of the test compounds at inhibition of germination of seeds and root development as well as causing bleaching of leaves. Isoprenoid synthesis is vital in plants as isoprene-product gibberellins are a class of growth hormones in plants responsible for stimulating cell elongation and division. In addition, some carotenoids are involved in photosynthesis as components of the electron transport chain. MEP pathway inhibitors have the potential to prevent synthesis of these necessary cellular components and growth hormones resulting in inhibition of germination and root development as well as causing chlorosis, or bleaching in the leaves. The lettuce leaf assay, explores the effects of compounds as potential MEP pathway inhibitors by evaluating the effect on bleaching, root development, and germination of lettuce seeds, which all rely on isoprenoid biosynthesis. […] The assay is a qualitative assay and the effects are given rankings from 0 (no effect) to 5 (complete inhibition or bleaching). In this assay, compounds are dissolved in a volatile organic solvent and applied to filter paper in a petri dish. The solvent is allowed to evaporate and lettuce seeds are applied followed by the addition of 5 mL of water to obtain the necessary concentrations. Seeds are allowed to grow and they are observed on day 3 and day 4 for evaluation.

Bacillus cereus [4] = assay: Antibacterial preliminary screening BC; format: cell-based; conditions: score 0-3; also: key: 0 represents no inhibition; 3 is comparable to commercial antibiotic control
Corynebacterium xerosis [5] = assay: Antibacterial preliminary screening CX; format: cell-based; conditions: score 0-3; also: key: 0 represents no inhibition; 3 is comparable to commercial antibiotic control
Pseudomonas aeruginosa [6] = assay: Antibacterial preliminary screening PA; format: cell-based; conditions: score 0-3; also: key: 0 represents no inhibition; 3 is comparable to commercial antibiotic control
Micrococcus luteus [7] = assay: Antibacterial preliminary screening ML; format: cell-based; conditions: score 0-3; also: key: 0 represents no inhibition; 3 is comparable to commercial antibiotic control
Escherichia coli [8] = assay: Antibacterial preliminary screening EC; format: cell-based; conditions: score 0-3; also: key: 0 represents no inhibition; 3 is comparable to commercial antibiotic control
AtIspF = AtIspF (Arabidopsis thaliana, UniProt Q9CAK8); assay: University of Hamburg photometric enzymatic inhibition assay AtIspF; format: biochemical
Sequence of AtIspF (Q9CAK8 53-231): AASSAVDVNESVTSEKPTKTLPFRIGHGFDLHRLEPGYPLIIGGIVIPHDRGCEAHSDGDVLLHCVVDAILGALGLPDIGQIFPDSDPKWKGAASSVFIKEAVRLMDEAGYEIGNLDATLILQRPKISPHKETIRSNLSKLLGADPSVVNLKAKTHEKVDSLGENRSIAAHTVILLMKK
Method: (§1) Compounds were subjected to a photometric enzymatic assay to test for inhibition of the plant enzymes Arabidopsis thaliana IspD and IspF, and IspE from Lycopersicon esculentum.
The IspF assay mixture conditions were as follows: 100 mM Tris hydrochloride at pH 8.0 with 10 mM MgCl2, 1 mM dithiothreitol, 2.5 mM potassium phosphoenol pyruvate, 2 mM ATP, 1 mM of 4-diphosphocytidyl-2C methylerythritol 2-phosphate, 460 μM NADH, 1.1% (v/v) DMSO, 0.5 U CMP kinase, 2.4 mU IspF, 1 U lactate dehydrogenase, 1 U pyruvate kinase in 180 μL of solution. Solutions were incubated at 27° C. and monitored photometrically.

Mycobacterium smegmatis [9] = assay: Antibacterial preliminary screening MS; format: cell-based; conditions: score 0-3; also: key: 0 represents no inhibition; 3 is comparable to commercial antibiotic control
[10] = test system: Corynebacterium pseudodiphtheriae; assay: Antibacterial preliminary screening CP; format: cell-based; conditions: score 0-3;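 also: 0 is no inhibition and 3 matches the commercial antibiotic control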
LeIspE = LeIspE (Solanum lycopersicum, UniProt P93841); assay: University of Hamburg photometric enzymatic inhibition assay LeIspE; format: biochemical, Lycopersicon esculentum
Sequence of LeIspE (P93841 89-401): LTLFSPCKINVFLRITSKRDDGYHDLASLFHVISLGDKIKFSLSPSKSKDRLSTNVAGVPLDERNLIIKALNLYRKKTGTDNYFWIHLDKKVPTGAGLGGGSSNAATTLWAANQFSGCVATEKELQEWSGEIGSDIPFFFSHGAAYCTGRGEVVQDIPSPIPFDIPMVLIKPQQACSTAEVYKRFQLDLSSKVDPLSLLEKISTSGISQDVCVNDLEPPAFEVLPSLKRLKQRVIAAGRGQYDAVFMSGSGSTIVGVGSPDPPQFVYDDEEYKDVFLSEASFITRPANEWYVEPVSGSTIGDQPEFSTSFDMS
Method: as §1
The IspE assay conditions were very similar to the IspD assay in which the assay mixture was composed of 100 mM Tris hydrochloride at pH 8.0 with 10 mM MgCl2, 1 mM dithiothreitol, 2.5 mM potassium phosphoenol pyruvate, 2 mM ATP, 1 mM of 4-Diphosphocytidyl-2-C-methylerythritol, 460 μM NADH, 1.1% (v/v) DMSO, 2.4 mU IspE, 1 U lactate dehydrogenase, 1 U pyruvate kinase in 180 μL of solution. Solutions were incubated at 27° C. and monitored photometrically.

AtIspD = AtIspD (Arabidopsis thaliana, UniProt P69834); assay: University of Hamburg photometric enzymatic inhibition assay AtIspD; format: biochemical
Sequence of AtIspD (P69834 62-302): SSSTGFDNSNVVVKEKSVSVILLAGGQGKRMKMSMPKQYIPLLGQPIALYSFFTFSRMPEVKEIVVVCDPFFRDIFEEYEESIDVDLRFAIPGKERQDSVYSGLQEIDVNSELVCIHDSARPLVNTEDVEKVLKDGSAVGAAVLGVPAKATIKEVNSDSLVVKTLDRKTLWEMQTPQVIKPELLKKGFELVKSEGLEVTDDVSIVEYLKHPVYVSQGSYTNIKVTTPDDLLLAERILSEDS
Method: as §1
The procedure for AtIspD enzymatic inhibition assay, was performed by making an assay mixture of 100 mM Tris hydrochloride at pH 8.0 with 10 mM MgCl2, 1 mM dithiothreitol, 2.5 mM potassium phosphoenol pyruvate, 2.1 mM CTP, 2 mM ATP, 1 mM of (2R,3S)-2,3-dihydroxy-4-oxopentyl phosphate, 460 μM NADH, 1.1% (v/v) DMSO, 0.4 U IspE, 1 U lactate dehydrogenase, 1 U pyruvate kinase and 2.4 mU IspD in 180 μL of solution. Solutions were incubated at 27° C. and monitored photometrically. By preparing the assay mixture with a large excess of IspE compared to IspD, any inhibition of IspE by the test inhibitor would be insignificant compared to IspD and therefore the rate of the reaction is determined by IspD activity.

[11] = molecular target: Lycopersicon esculentum IspE (LeIspE) (Solanum lycopersicum, UniProt P93841); assay: Thermal shift assay against LeIspE; format: binding
Sequence of Lycopersicon esculentum IspE (LeIspE) (P93841 89-401): as the sequence (P93841 89-401) above

Bacillus cereus [12] = assay: Antibacterial assay zone of inhibition Bc; format: cell-based
Micrococcus luteus [13] = assay: Antibacterial assay zone of inhibition Ml; format: cell-based
Klebsiella pneumonia [14] = assay: Antibacterial assay zone of inhibition Kp; format: cell-based
Corynebacterium xerosis [15] = assay: Antibacterial assay zone of inhibition Cx; format: cell-based
Pseudomonas aeruginosa [16] = assay: Antibacterial assay zone of inhibition Pa; format: cell-based
[17] = test system: Burkholderia thailandensis; format: cell-based
Mycobacterium smegmatis [18] = assay: Antibacterial assay zone of inhibition Ms; format: cell-based
Escherichia coli [19] = assay: Antibacterial assay zone of inhibition Ec; format: cell-based
[20] = test system: Corynebacterium pseudodiphtheriae; assay: Antibacterial assay zone of inhibition Cp; format: cell-based

SMILES | KP score (Klebsiella pneumonia [1]) | melting point [°C] | BT score [2] | BC score (Bacillus cereus [4]) | CX score (Corynebacterium xerosis [5]) | PA score (Pseudomonas aeruginosa [6]) | ML score (Micrococcus luteus [7]) | EC score (Escherichia coli [8]) | MS score (Mycobacterium smegmatis [9]) | CP score [10] | IC50 (AtIspF) [µM] | IC50 (LeIspE) [µM] | IC50 (AtIspD) [µM] | Antibacterial Bc zone of inhibition (Bacillus cereus [12]; 0.1 mM) [millimeters] | Antibacterial Bc zone of inhibition (Bacillus cereus [12]; 0.5 mM) [millimeters] | Antibacterial Bc zone of inhibition (Bacillus cereus [12]; 1 mM) [millimeters] | Antibacterial Ml zone of inhibition (Micrococcus luteus [13]; 0.1 mM) [millimeters] | Antibacterial Ml zone of inhibition (Micrococcus luteus [13]; 0.5 mM) [millimeters] | Antibacterial Ml zone of inhibition (Micrococcus luteus [13]; 1 mM) [millimeters] | Antibacterial Kp zone of inhibition (Klebsiella pneumonia [14]; 0.1 mM) [millimeters] | also measured
Cc1nnc(-c2cc3ccccc3[nH]2)o1 [HGN-209, 2-(1H-indol-2-yl)-5-methyl-1,3,4-oxadiazole] | 0 | 232 to 234 | 0 | 0 | 0 | 0 | 0 | 0 | 0 | 0 | – | – | – | – | – | – | – | – | – | – | MtIspD melting point change [3]: 1.5 °C; MtIspD melting temp [3]: 49.5 °C; Bleaching (lettuce seeds; 0.5 mM): 0; Germination (lettuce seeds; 0.5 mM): 1; Root Dev. (lettuce seeds; 0.5 mM): 1; Bleaching (lettuce seeds; 1.0 mM): 0; Germination (lettuce seeds; 1.0 mM): 2; Root Dev. (lettuce seeds; 1.0 mM): 1; IC50 (AtIspF; read-out: AtIspF IC50): > 1000 µM; IC50 (LeIspE; read-out: LeIspE IC50): > 1000 µM; IC50 (AtIspD; read-out: AtIspD IC50): > 1000 µM; LeIspE melting point change [11]: −2.25 °C; LeIspE melting temp [11]: 47.25 °C
COCc1nnc(-c2cc3ccccc3[nH]2)o1 [HGN-212, 2-(1H-indol-2-yl)-5-(methoxymethyl)-1,3,4-oxadiazole] | 0 | 152 to 156 | 0 | 0 | 0 | 0 | 0 | 0 | 0 | 0 | > 1000 | > 1000 | > 1000 | – | – | – | – | – | – | – | –
c1ccc2[nH]c(-c3nnc(C4CCC4)o3)cc2c1 [HGN-251, 2-cyclobutyl-5-(1H-indol-2-yl)-1,3,4-oxadiazole] | 0 | 169 to 173 | 0 | 0 | 0 | 0 | 0 | 0 | 0 | 0 | > 1000 | > 1000 | > 1000 | – | – | – | – | – | – | – | –
c1ccc(-c2nnc(-c3cc4ccccc4[nH]3)o2)cc1 [HGN-208, 2-(1H-indol-2-yl)-5-phenyl-1,3,4-oxadiazole] | 0 | 254 to 257 | 0 | 0 | 0 | 0 | 0 | 0 | 0 | 0 | > 1000 | 165 ± 47 | 342 ± 42 | – | – | – | – | – | – | – | –
Clc1cccc(OCc2nnc(-c3nc4ccccc4s3)o2)c1 [HGN-835] | – | – | – | – | – | – | – | – | – | – | – | – | – | 0 | 14 | 20 | 0 | 0 | 14 | 0 | Antibacterial Kp zone of inhibition (Klebsiella pneumonia [14]; 0.5 mM): 14 millimeters; Antibacterial Kp zone of inhibition (Klebsiella pneumonia [14]; 1 mM): 18 millimeters; Antibacterial Cx zone of inhibition (Corynebacterium xerosis [15]; 0.1 mM): 0 millimeters; Antibacterial Cx zone of inhibition (Corynebacterium xerosis [15]; 0.5 mM): 0 millimeters; Antibacterial Cx zone of inhibition (Corynebacterium xerosis [15]; 1 mM): 0 millimeters; Antibacterial Pa zone of inhibition (Pseudomonas aeruginosa [16]; 0.1 mM): 0 millimeters; Antibacterial Pa zone of inhibition (Pseudomonas aeruginosa [16]; 0.5 mM): 0 millimeters; Antibacterial Pa zone of inhibition (Pseudomonas aeruginosa [16]; 1 mM): 0 millimeters; Antibacterial Bt zone of inhibition ([17]; 0.1 mM): 0 12.5 18 millimeters; Antibacterial Bt zone of inhibition ([17]; 0.5 mM): 0 12.5 18 millimeters; Antibacterial Bt zone of inhibition ([17]; 1 mM): 0 12.5 18 millimeters; Antibacterial Ms zone of inhibition (Mycobacterium smegmatis [18]; 0.1 mM): 0 millimeters; Antibacterial Ms zone of inhibition (Mycobacterium smegmatis [18]; 0.5 mM): 0 millimeters; Antibacterial Ms zone of inhibition (Mycobacterium smegmatis [18]; 1 mM): 0 millimeters; Antibacterial Ec zone of inhibition (Escherichia coli [19]; 0.1 mM): 0 millimeters; Antibacterial Ec zone of inhibition (Escherichia coli [19]; 0.5 mM): 0 millimeters; Antibacterial Ec zone of inhibition (Escherichia coli [19]; 1 mM): 0 millimeters; Antibacterial Cp zone of inhibition ([20]; 0.1 mM): 0 millimeters; Antibacterial Cp zone of inhibition ([20]; 0.5 mM): 0 millimeters; Antibacterial Cp zone of inhibition ([20]; 1 mM): 0 millimeters
Clc1ccc(CCc2nnc(-c3nc4ccccc4s3)o2)c(Cl)c1 [HGN-824] | – | – | – | – | – | – | – | – | – | – | – | – | – | 0 | 0 | 0 | 0 | 0 | 0 | 0 | Antibacterial Kp zone of inhibition (Klebsiella pneumonia [14]; 0.5 mM): 0 millimeters; Antibacterial Kp zone of inhibition (Klebsiella pneumonia [14]; 1 mM): 0 millimeters; Antibacterial Cx zone of inhibition (Corynebacterium xerosis [15]; 0.1 mM): 0 millimeters; Antibacterial Cx zone of inhibition (Corynebacterium xerosis [15]; 0.5 mM): 0 millimeters; Antibacterial Cx zone of inhibition (Corynebacterium xerosis [15]; 1 mM): 0 millimeters; Antibacterial Pa zone of inhibition (Pseudomonas aeruginosa [16]; 0.1 mM): 0 millimeters; Antibacterial Pa zone of inhibition (Pseudomonas aeruginosa [16]; 0.5 mM): 0 millimeters; Antibacterial Pa zone of inhibition (Pseudomonas aeruginosa [16]; 1 mM): 0 millimeters; Antibacterial Bt zone of inhibition ([17]; 0.1 mM): 0 millimeters; Antibacterial Bt zone of inhibition ([17]; 0.5 mM): 0 millimeters; Antibacterial Bt zone of inhibition ([17]; 1 mM): 0 millimeters; Antibacterial Ms zone of inhibition (Mycobacterium smegmatis [18]; 0.1 mM): 0 millimeters; Antibacterial Ms zone of inhibition (Mycobacterium smegmatis [18]; 0.5 mM): 12 millimeters; Antibacterial Ms zone of inhibition (Mycobacterium smegmatis [18]; 1 mM): 18 millimeters; Antibacterial Ec zone of inhibition (Escherichia coli [19]; 0.1 mM): 0 millimeters; Antibacterial Ec zone of inhibition (Escherichia coli [19]; 0.5 mM): 0 millimeters; Antibacterial Ec zone of inhibition (Escherichia coli [19]; 1 mM): 0 millimeters; Antibacterial Cp zone of inhibition ([20]; 0.1 mM): 0 millimeters; Antibacterial Cp zone of inhibition ([20]; 0.5 mM): 0 millimeters; Antibacterial Cp zone of inhibition ([20]; 1 mM): 10 millimeters
